For twelve compounds, IC50 results are on record in patent US11447466B2, “Substituted indole compounds useful as inhibitors of TLR7/8/9” (BRISTOL-MYERS SQUIBB COMPANY, priority 2017, dated 2022).

A value given as a limit tells only on which side of the number the result lay.

Type in all cases: cell-based
One test deals with T1, human TLR8 (Homo sapiens, UniProt Q9NR97).
T1 construct: host or cells: HEK-Blue cells
T1 sequence (Q9NR97 27-1041): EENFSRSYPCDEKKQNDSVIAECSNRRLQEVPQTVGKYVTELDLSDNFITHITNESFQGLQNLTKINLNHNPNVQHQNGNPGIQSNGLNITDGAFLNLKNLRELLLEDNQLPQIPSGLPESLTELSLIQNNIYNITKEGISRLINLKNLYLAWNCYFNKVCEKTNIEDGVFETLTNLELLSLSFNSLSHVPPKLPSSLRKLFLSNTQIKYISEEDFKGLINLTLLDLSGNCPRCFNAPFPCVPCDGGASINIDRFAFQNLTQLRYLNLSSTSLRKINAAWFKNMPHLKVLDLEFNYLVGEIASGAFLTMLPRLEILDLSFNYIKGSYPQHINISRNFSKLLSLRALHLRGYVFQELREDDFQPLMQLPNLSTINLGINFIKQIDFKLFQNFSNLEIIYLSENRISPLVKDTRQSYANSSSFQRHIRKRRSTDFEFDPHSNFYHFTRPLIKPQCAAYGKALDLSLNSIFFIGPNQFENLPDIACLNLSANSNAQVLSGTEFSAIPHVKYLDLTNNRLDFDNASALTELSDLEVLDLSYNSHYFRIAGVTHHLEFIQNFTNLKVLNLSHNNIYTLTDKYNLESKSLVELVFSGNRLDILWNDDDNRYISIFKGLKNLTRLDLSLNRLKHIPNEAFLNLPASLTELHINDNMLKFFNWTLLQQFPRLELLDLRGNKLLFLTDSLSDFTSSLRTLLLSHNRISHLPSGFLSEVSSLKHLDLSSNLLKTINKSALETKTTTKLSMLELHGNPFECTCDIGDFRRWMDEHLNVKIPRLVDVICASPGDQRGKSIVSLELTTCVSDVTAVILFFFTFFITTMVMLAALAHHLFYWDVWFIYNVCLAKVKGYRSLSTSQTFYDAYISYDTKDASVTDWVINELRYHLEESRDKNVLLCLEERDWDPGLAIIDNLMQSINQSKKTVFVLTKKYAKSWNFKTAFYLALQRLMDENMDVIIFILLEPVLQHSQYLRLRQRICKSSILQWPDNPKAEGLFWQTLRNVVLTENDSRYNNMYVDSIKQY
Kind of test: TLR8 inhibition reporter assay (HEK-Blue SEAP reporter, R848 stimulation). As to conditions: HEK-Blue cells overexpressing human TLR8, SEAP reporter, R848 15.9 μM, 22 hour incubation. An outline of the steps: (§1)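 Compound treatment: 30 min, RT, 0.05 nM–50 μM final. Agonist: TLR7 gardiquimod 7.5 μM; TLR8 R848 15.9 μM; TLR9 ODN2006 5 nM. Incubation 22 h, 37 °C, 5% CO2. Readout SEAP, HEK-Blue Detection.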
(In general: In a reporter assay the amount or activity of a reporter protein is the signal.)

For another test, the target named is T2, human TLR9 (Homo sapiens, UniProt Q9NR96).
T2 construct: host or cells: HEK-Blue cells
T2 sequence (Q9NR96 26-1032): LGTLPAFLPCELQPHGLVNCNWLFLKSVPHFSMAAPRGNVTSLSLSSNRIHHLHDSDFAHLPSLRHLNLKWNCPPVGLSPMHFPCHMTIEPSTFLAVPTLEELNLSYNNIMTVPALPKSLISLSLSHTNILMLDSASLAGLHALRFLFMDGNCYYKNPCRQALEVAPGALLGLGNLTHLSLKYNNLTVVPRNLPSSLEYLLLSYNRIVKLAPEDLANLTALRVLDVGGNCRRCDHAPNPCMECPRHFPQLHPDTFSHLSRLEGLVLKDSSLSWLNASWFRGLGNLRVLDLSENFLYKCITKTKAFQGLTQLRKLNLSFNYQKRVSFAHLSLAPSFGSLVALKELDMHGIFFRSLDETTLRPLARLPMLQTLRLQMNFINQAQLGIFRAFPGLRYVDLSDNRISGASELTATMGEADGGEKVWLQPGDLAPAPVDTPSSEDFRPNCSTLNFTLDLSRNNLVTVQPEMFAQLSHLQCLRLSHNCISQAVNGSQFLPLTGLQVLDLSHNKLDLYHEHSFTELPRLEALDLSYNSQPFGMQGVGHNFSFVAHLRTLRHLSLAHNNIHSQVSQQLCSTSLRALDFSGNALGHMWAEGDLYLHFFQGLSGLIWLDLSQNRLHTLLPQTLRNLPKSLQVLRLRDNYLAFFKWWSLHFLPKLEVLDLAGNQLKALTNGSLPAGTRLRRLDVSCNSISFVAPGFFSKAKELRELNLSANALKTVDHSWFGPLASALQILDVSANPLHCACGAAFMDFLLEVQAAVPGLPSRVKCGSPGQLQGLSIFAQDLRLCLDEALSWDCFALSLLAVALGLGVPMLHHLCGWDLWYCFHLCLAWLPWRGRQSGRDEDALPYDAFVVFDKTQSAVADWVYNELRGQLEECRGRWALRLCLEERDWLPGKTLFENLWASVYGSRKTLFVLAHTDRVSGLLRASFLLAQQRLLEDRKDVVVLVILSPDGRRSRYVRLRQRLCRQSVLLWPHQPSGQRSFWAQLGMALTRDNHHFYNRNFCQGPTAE
The test is described as follows: TLR9 inhibition reporter assay (HEK-Blue SEAP reporter, ODN2006 stimulation). As to conditions: HEK-Blue cells overexpressing human TLR9, SEAP reporter, ODN2006 5 nM, 22 hour incubation. The procedure, abridged: as §1

The target in another test is T3, human TLR7 (Homo sapiens, UniProt Q9NYK1).
T3 construct: host or cells: HEK-Blue cells
T3 sequence (Q9NYK1 27-1049): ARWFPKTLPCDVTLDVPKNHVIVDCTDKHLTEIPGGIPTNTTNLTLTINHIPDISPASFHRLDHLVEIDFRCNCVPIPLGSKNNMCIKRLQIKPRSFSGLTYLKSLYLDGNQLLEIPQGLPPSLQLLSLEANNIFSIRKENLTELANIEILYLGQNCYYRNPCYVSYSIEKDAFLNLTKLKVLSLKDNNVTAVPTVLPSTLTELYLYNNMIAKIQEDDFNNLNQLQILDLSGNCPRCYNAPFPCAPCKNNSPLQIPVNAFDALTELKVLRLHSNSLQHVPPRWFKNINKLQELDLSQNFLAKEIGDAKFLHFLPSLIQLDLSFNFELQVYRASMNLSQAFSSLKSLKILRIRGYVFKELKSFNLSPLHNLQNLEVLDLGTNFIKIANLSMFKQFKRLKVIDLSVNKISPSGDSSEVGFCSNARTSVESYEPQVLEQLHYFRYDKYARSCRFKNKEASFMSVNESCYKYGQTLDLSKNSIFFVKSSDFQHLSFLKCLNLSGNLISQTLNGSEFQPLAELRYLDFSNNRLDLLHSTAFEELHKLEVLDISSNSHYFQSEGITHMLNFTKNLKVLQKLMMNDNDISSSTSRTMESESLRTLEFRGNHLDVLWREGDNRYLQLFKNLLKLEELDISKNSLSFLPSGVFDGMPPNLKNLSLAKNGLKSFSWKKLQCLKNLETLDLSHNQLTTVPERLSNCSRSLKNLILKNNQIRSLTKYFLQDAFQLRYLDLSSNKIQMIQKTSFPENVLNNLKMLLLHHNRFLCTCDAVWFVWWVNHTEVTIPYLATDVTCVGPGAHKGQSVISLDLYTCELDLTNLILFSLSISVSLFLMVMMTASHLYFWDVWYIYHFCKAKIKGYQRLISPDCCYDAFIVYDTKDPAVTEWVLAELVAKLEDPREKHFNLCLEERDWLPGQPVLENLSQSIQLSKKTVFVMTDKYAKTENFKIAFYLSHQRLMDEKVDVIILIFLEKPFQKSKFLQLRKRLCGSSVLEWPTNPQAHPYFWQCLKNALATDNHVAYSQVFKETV
Kind of test: TLR7 inhibition reporter assay (HEK-Blue SEAP reporter, gardiquimod stimulation). As to conditions: HEK-Blue cells overexpressing human TLR7, SEAP reporter, gardiquimod 7.5 μM, 22 hour incubation. The procedure, abridged:
as §1

For orientation: IC50 means the point on the concentration scale where inhibition reaches its midpoint. Low readings indicate higher potency, high ones lower potency. With `Cc1cc(-c2[nH]c3ccc(C4CCN(C(=O)CN5CCCC5=O)CC4)cc3c2C(C)C)cn(C)c1=O` [Example 300, 5-(3-isopropyl-5-(1-(2-(2-oxopyrrolidin-1-yl)acetyl)piperidin-4-yl)-1H-indol-2-yl)-1,3-dimethylpyridin-2(1H)-one], the IC50 at human TLR8 was 42.5 nM; against human TLR9, ≥ 50000 nM; against human TLR7 it was 42.6 nM.

As for `CC(=O)NC1CCC(N2CCC(c3ccc4[nH]c(-c5cc(C)c(=O)n(C)c5)c(C(C)C)c4c3)CC2)CC1` (stereo not drawn) [Example 229, N-(4-(4-(2-(1,5-dimethyl-6-oxo-1,6-dihydropyridin-3-yl)-3-isopropyl-1H-indol-5-yl)piperidin-1-yl)cyclohexyl)acetamide], the figures for the IC50 on human TLR8, on human TLR9 and against human TLR7 were 4.2 nM, ≥ 50000 nM and 5.7 nM, respectively.

On to `CC(C)c1c(-c2cc(CO)c(=O)n(C)c2)[nH]c2ccc(C3CCNCC3)cc12` [Example 70, 3-(hydroxymethyl)-5-(3-isopropyl-5-(piperidin-4-yl)-1H-indol-2-yl)-1-methylpyridin-2(1H)-one], for which the IC50 against human TLR8 stood at 26.1 nM; on human TLR9, 2450 nM; against human TLR7, 8.6 nM.

Turning to `CNC(=O)CN1CCC(c2ccc3[nH]c(-c4cc(C)c(=O)n(C)n4)c(C(C)C)c3c2)CC1` [Example 118, 2-(4-(2-(1,5-dimethyl-6-oxo-1,6-dihydropyridazin-3-yl)-3-isopropyl-1H-indol-5-yl)piperidin-1-yl)-N-methylacetamide], the IC50 was 14.5 nM against human TLR8, 9640 nM against human TLR9 and 18.6 nM against human TLR7.

Regarding `Cc1cc(-c2[nH]c3ccc(C4CCN(C5CCOCC5)CC4)cc3c2C(C)C)cn(C)c1=O` [Example 178, 5-(3-isopropyl-5-(1-(tetrahydro-2H-pyran-4-yl)piperidin-4-yl)-1H-indol-2-yl)-1,3-dimethylpyridin-2(1H)-one], the values for the half-maximal inhibitory concentration (IC50) at human TLR8, on human TLR9 and against human TLR7 were 3.2 nM, 7090 nM and 3.9 nM, respectively.

For `Cc1c(-c2[nH]c3ccc(C4CCN(C(C)C(N)=O)CC4)cc3c2C(C)C)cn(C)c(=O)c1Cl` (stereo not drawn) [Example 156, 2-(4-(2-(5-chloro-1,4-dimethyl-6-oxo-1,6-dihydropyridin-3-yl)-3-isopropyl-1H-indol-5-yl)piperidin-1-yl)propanamide], the IC50 against human TLR8 came to 7.4 nM; against human TLR9, 11800 nM; against human TLR7 it was 4.3 nM.

Turning to `Cc1cc(-c2[nH]c3ccc(C4CCN(C)CC4)cc3c2C(C)C)nn(C)c1=O` [Example 191, 6-(3-isopropyl-5-(1-methylpiperidin-4-yl)-1H-indol-2-yl)-2,4-dimethylpyridazin-3(2H)-one], the IC50 is 21.5 nM on human TLR8, 8840 nM on human TLR9 and 6.9 nM on human TLR7.

For the compound `CCCN1CCC(c2ccc3[nH]c(-c4cc(-c5cnc(C6CC6)nc5)c(=O)n(C)c4)c(C(C)C)c3c2)CC1` [Example 338, 3-(2-cyclopropylpyrimidin-5-yl)-5-(3-isopropyl-5-(1-propylpiperidin-4-yl)-1H-indol-2-yl)-1-methylpyridin-2(1H)-one], the IC50 stood at 13.5 nM against human TLR8, 772 nM at human TLR9 and 1.1 nM at human TLR7.

As for `Cc1cc(-c2[nH]c3ccc(C4CCN(CC(N)=O)CC4)cc3c2C(C)C)cn(C)c1=O` [Example 150, 2-(4-(2-(1,5-dimethyl-6-oxo-1,6-dihydropyridin-3-yl)-3-isopropyl-1H-indol-5-yl)piperidin-1-yl)acetamide], the IC50 worked out at 4.4 nM on human TLR8, 11400 nM on human TLR9 and 1.2 nM at human TLR7.

On to `Cc1cc(-c2[nH]c3ccc(C4CCN(Cc5cc(OC(F)F)ccc5F)CC4)cc3c2C(C)C)cn(C)c1=O` [Example 78, 5-(5-(1-(5-(difluoromethoxy)-2-fluorobenzyl)piperidin-4-yl)-3-isopropyl-1H-indol-2-yl)-1,3-dimethylpyridin-2(1H)-one], for which the IC50 was 64 nM against human TLR8, 34800 nM at human TLR9 and 67.6 nM against human TLR7.

With `Cc1c(-c2[nH]c3ccc(C4CCN(CC(C)(C)O)CC4)cc3c2C(C)C)cn(C)c(=O)c1Cl` [Example 309, 3-chloro-5-(5-(1-(2-hydroxy-2-methylpropyl)piperidin-4-yl)-3-isopropyl-1H-indol-2-yl)-1,4-dimethylpyridin-2(1H)-one], the IC50 against human TLR8 is 5.3 nM; at human TLR9, 8510 nM; on human TLR7, 13.7 nM.

Take `Cc1c(-c2[nH]c3ccc(C4CCN(C5CCOCC5)CC4)cc3c2C(C)C)cn(C)c(=O)c1C` [Example 206, 5-(3-isopropyl-5-(1-(tetrahydro-2H-pyran-4-yl)piperidin-4-yl)-1H-indol-2-yl)-1,3,4-trimethylpyridin-2(1H)-one]: the IC50 on human TLR8 came out at 2.6 nM; at human TLR9 it was 4490 nM; against human TLR7 it was 18.9 nM.
